The values below come from US12616705B2, “Use of cannabinoids in the treatment of Angelman syndrome” (JAZZ PHARMACEUTICALS RESEARCH UK LIMITED, priority 2016, dated 2026).

The test system of data set [1] is Heterozygous mice with maternal deficiency of Ube3A (Ube3am−/p+). Description: Tail suspension test (depressive-like behaviour) in a mouse model of Angelman syndrome. Type of data set: in vivo. The note with it: AS mice, CBD 20 mg/kg i.p. daily, vs AS mice treated with vehicle; FIG. 4. As for the experimental part: (§1) Heterozygous mice with maternal deficiency of Ube3A (Ube3am−/p+) and wild type (Ube3am+/p+) were purchased from The Jackson Laboratory (Jackson code: B6.12957-Ube3a tm1Alb/J) and maintained in a C57BL/6 background.
Drugs were dissolved in 1:1:18 ethanol:cremophor: 0.9% saline, for intraperitoneal (i.p.) administration. Drug treatment was performed daily for 35 days.
Tail suspension: The tail suspension test assesses depressive-like behaviour in mice. Mice were individually suspended by the tail on a horizontal bar (50 cm from floor) using adhesive tape placed approximately 4 cm from the tip of the tail. The duration of immobility was recorded in seconds over a period of 6 minutes by a time recorder. Immobility time was defined as the absence of escape-oriented behaviour.

The test system is the same in data set [2]. Description: Clasping test (ataxia) in a mouse model of Angelman syndrome. Type of data set: in vivo. The note with it: AS mice, CBD 20 mg/kg i.p. daily, chronic treatment (30 days), at 10 weeks of age, vs AS mice treated with vehicle; FIG. 1. As for the experimental part:
as §1
(§2) Drugs were dissolved in 1:1:18 ethanol:cremophor: 0.9% saline, for intraperitoneal (i.p.) administration. […]
Clasping: The clasping test assesses ataxia in mice. Mice were suspended by the base of the tail and their behaviours were recorded for 30 seconds. The time for which the mice clasped their hind limbs was recorded. The time was then scored as follows: 4, 15-30 s, 3, 10-15 s, 2, 5-10 s, 1, 0-5 s and 0, 0 s.

Data set [3] shares this test system. Description: Rotarod test (balance and motor coordination) in a mouse model of Angelman syndrome. Type of data set: in vivo. The note with it: AS mice, CBD 20 mg/kg i.p. daily, chronic treatment (30 days), vs AS mice treated with vehicle; FIG. 2. As for the experimental part: as §1, §2
Rotarod: The rotarod test assesses balance and motor coordination of mice. Mice have been measured for the time (in seconds) of equilibrium before falling on a rotary cylinder by a magnet that, activated from the fall of the mouse on the plate, allows to record the time of permanence on the cylinder. […] The animals were analysed by 2 separate tests at 1-h interval in the same day.

The conditions of data set [4]: background statement; cited from earlier work.

Regarding `C=C(C)[C@@H]1CCC(C)=C[C@H]1c1c(O)cc(CCCCC)cc1O` [CBD, Cannabidiol], the “duration of immobility time (tail suspension)” value in data set [1] is “significantly reduced the duration of immobility time”. Also, the clasping duration result in data set [2] is listed as “significantly reduced clasping duration”. In data set [3], the “latency to fall (rotarod)” value is recorded as “significantly reduced latency to fall”.

`Cc1c(C(=O)NN2CCCCC2)nn(-c2ccc(Cl)cc2Cl)c1-c1ccc(Cl)cc1` [rimonabant]: in data set [4], the side effects result is reported as “serious side effects which limit its use, such as suicide ideation”.
